According to US7009050B2, “5-Substituted pyrimidine derivatives of conformationally locked nucleoside analogues” (The United States of America as represented by the …, priority 2000, dated 2006):
In brackets after ≈: the same amount, converted by molar mass. Where two headings read alike, the source gives them in different places.

Columns and labels:
[1] = tested on: herpes viruses; assay: antiherpes activity of methanocarbathymine conformers (test not specified); format: cell-based
[2] = tested on: TK + VZV YS strain; assay: VZV plaque reduction, TK+ VZV YS strain; format: cell-based, Varicella zoster virus; conditions: read-out: Antiviral activity (Plaque reduction) EC50, TK + VZV YS strain
[3] = tested on: TK + VZV OKA strain; assay: VZV plaque reduction, TK+ VZV OKA strain; format: cell-based, Varicella zoster virus; conditions: read-out: Antiviral activity (Plaque reduction) EC50, TK + VZV OKA strain
Protocol: (§1) The virus plaque reduction assay proceeds generally as follows. […] The drug concentrations utilized are usually 200 down to 0.06 μg/mL. The virus to be used is diluted in MEM containing 10% FBS to a desired concentration which will give 20–30 plaques/well. The media are then aspirated from the wells, and 0.2 mL of virus is added to each well in duplicate with 0.2 mL of media being added to drug toxicity wells. The plates are then incubated for 1 hr with shaking every 15 min. After the incubation period, an equal amount of 1% agarose is added to an equal volume of each drug dilution. […] The drug agarose mixture is applied to each well in 2 mL volume, and the plates are incubated for 3 days, after which the cells are stained with a […] of neutral red. At the end of the 4–6 h incubation period, the stain is aspirated, and plaques are counted using a stereomicroscope at 10× magnification.

[4] = tested on: TK − VZV 07/1 strain; assay: VZV plaque reduction, TK- VZV 07/1 strain; format: cell-based, Varicella zoster virus; conditions: read-out: Antiviral activity (Plaque reduction) EC50, TK − VZV 07/1 strain
Protocol: as §1

[5] = tested on: TK − VZV YS/R strain; assay: VZV plaque reduction, TK- VZV YS/R strain; format: cell-based, Varicella zoster virus; conditions: read-out: Antiviral activity (Plaque reduction) EC50, TK − VZV YS/R strain
Protocol: as §1

[6] = tested on: human foreskin fibroblast (HFF) cells
[7] = tested on: HSV-1; assay: cytopathogenic effect (CPE) inhibition assay, HSV-1 in HFF; conditions: for HSV-1 (HFF) CPE inhib. EC50: HFF cells, CPE inhibition
[8] = tested on: HSV-2; assay: cytopathogenic effect (CPE) inhibition assay, HSV-2 in HFF; conditions: HFF cells
[9] = tested on: Vaccinia; conditions: HFF cells; CPE inhibition
[10] = tested on: Vaccinia; conditions: HFF cells; plaque reduction
[11] = tested on: Cowpox; conditions: HFF cells; CPE inhibition
[12] = tested on: Cowpox; conditions: HFF cells; plaque reduction
[13] = tested on: HSV-1; assay: virus plaque reduction assay, HSV-1 in HFF
[14] = tested on: HSV-2; assay: virus plaque reduction assay, HSV-2 in HFF
[15] = cytotoxicity (cell morphology MCC, cell growth CC50), Table 3; conditions: for Cytotoxicity, Cell Morphology (MCC): minimum cytotoxic concentration causing microscopically detectable alteration of cell morphology; for CC50: read-out: Cytotoxicity CC50, cell growth
[16] = plaque reduction assay, more potent than acyclovir

For Cc1cn([C@@]23C[C@H](O)[C@@H](CO)[C@@H]2C3)c(=O)[nH]c1=O, the “antiherpes activity (in words)” value [1] was “inactive”.

Compound O=c1[nH]c(=O)n([C@H]2C[C@H](O)[C@]3(CO)C[C@H]23)cc1/C=C/Br [(N)-MCBVDU (5)] has an EC50 [2] of 7 nM, an EC50 [3] of 5 nM and an EC50 [4] of over 5000 nM. For the same compound, the EC50 [5] was over 5000 nM, the “HSV-1 (HFF) CPE inhib. CC50” value [6] was over 100 µg/mL and the “HSV-2 (HFF) CPE inhib. CC50” value [6] was over 100 µg/mL. The “HSV-1 (HFF) CPE inhib. EC50” value [7] was 2.2 µg/mL, the “HSV-2 (HFF) CPE inhib. EC50” value [8] was over 100 µg/mL and the “SI (CC50/EC50), HSV-2 CPE inhib.” value [8] was 0.

With O=c1[nH]c(=O)n(C2CC(O)C3(CO)CC23)cc1Br (centres unmarked) [(N)-MCdBrU (3)] the EC50 [2] was 30 nM, the EC50 [3] was 890 nM and the EC50 [4] was 107000 nM. The EC50 [5] was 37000 nM, the “SI (CC50/EC50), Vaccinia CPE inhib.” value [9] was over 156 and the “Vaccinia (HFF) CPE inhib. EC50” value [9] was 0.64 µg/mL. For the same compound, the “SI (CC50/EC50), Vaccinia Plaque red'n” value [10] was 38.5, the “Vaccinia (HFF) Plaque red'n EC50” value [10] was 2.6 µg/mL and the “Cowpox (HFF) CPE inhib. EC50” value [11] was 11.5 µg/mL. The “SI (CC50/EC50), Cowpox CPE inhib.” value [11] was 8.7, the “Cowpox (HFF) Plaque red'n EC50” value [12] was 3.4 µg/mL and the “SI (CC50/EC50), Cowpox Plaque red'n” value [12] was 29.4. The “HSV-1 (HFF) CPE inhib. CC50” value [6] was over 100 µg/mL, the “HSV-1 (HFF) plaque red'n CC50” value [6] was over 100 µg/mL and the “HSV-2 (HFF) CPE inhib. CC50” value [6] was over 100 µg/mL. For the same compound, the “HSV-2 (HFF) plaque red'n CC50” value [6] was over 100 µg/mL, the “Cowpox (HFF) CPE inhib. CC50” value ([6]; HFF cells, column of Cowpox CPE inhibition) was over 100 µg/mL and the “Cowpox (HFF) Plaque red'n CC50” value ([6]; HFF cells, column of Cowpox plaque reduction) was over 100 µg/mL. The “Vaccinia (HFF) CPE inhib. CC50” value ([6]; HFF cells, column of Vaccinia CPE inhibition) was over 100 µg/mL, the “Vaccinia (HFF) Plaque red'n CC50” value ([6]; HFF cells, column of Vaccinia plaque reduction) was over 100 µg/mL and the “HSV-1 (HFF) plaque red'n EC50” value ([13]; HFF cells, plaque reduction) was 0.03 µg/mL. The “SI (CC50/EC50), HSV-1 plaque red'n” value ([13]; HFF cells, plaque reduction) was 3333, the “HSV-2 (HFF) plaque red'n EC50” value ([14]; HFF cells, plaque reduction) was 0.12 µg/mL and the “SI (CC50/EC50), HSV-2 plaque red'n” value ([14]; HFF cells, plaque reduction) was 833. The “HSV-1 (HFF) CPE inhib. EC50” value [7] was 0.39 µg/mL, the “HSV-2 (HFF) CPE inhib. EC50” value [8] was 0.70 µg/mL and the “SI (CC50/EC50), HSV-2 CPE inhib.” value [8] was over 142.

For O=c1[nH]c(=O)n([C@H]2C[C@H](O)[C@]3(CO)C[C@H]23)cc1I [(N)-MCdIU (4)], the EC50 [3] was 160 nM, the EC50 [4] was over 5000 nM and the EC50 [5] was 3000 nM. For the same compound, the “HSV-1 (HFF) CPE inhib. CC50” value ([6]; HFF cells, column of HSV-1 CPE inhibition) was over 100 µg/mL, the “HSV-2 (HFF) CPE inhib. CC50” value ([6]; HFF cells, column of HSV-2 CPE inhibition) was over 100 µg/mL and the “HSV-1 (HFF) CPE inhib. EC50” value [7] was over 100 µg/mL. The “HSV-2 (HFF) CPE inhib. EC50” value [8] was 3.3 µg/mL, the “SI (CC50/EC50), HSV-2 CPE inhib.” value [8] was 30.3 and the “Cytotoxicity, Cell Morphology (MCC)” value [15] was over 5 μM. It also gave a CC50 [15] of over 200000 nM.

With Cc1cn([C@H]2C[C@H](O)[C@]3(CO)C[C@H]23)c(=O)[nH]c1=O [(North)-methanocarbathymine, reference compound] the “potency relative to acyclovir against HSV-1” value [13, 16] was 30 times and the “potency relative to acyclovir against HSV-2” value [14, 16] was 30 times.

Nc1nc2c(ncn2COCCO)c(=O)[nH]1 [ACV, acyclovir, reference compound] gave an EC50 ([7]; Human alphaherpesvirus 1, HFF, read-out: HSV-1 (HFF) CPE inhib. EC50) of 0.5 µg/mL (≈ 2.22 µM).

O=c1[nH]c(=O)n([C@H]2C[C@H](O)[C@@H](CO)O2)cc1/C=C/Br [BVDU, reference compound] gave an EC50 [2] of 8 nM, an EC50 [3] of 5 nM and an EC50 [4] of over 150000 nM. For the same compound, the EC50 [5] was over 150000 nM, the “Cytotoxicity, Cell Morphology (MCC)” value [15] was over 150 μM and the CC50 [15] was over 400000 nM.
